Experimental data as given in US20090137661A1, “PLANT DERIVED COMPOUNDS AND COMPOUND FORMULAE CONTAINING THE SAME FOR THE TREATMENT OF CERVICAL CANCER” (priority 2007, published 2009).
Converted amounts (≈) assume the structure as drawn. Where a name gives a salt, the structure may show the parent alone. Read-outs that look alike come from different tables or passages of the source.

Experiments:
HeLa cells = test: Cytotoxicity assay (MTT assay) on HeLa cells; settings: for IC50: Homo sapiens, HeLa
Method: HeLa cell line was obtained from Dr. S. S. Shen (Biomedical Engineering Research Laboratories of Industrial Technology Research Institute of Taiwan). HeLa cells are adherent cells and were propagated and maintained in Dulbecco's modified Eagle's medium (DMEM) supplemented with 10% fetal bovine serum (FBS), […] sodium bicarbonate (NaHCO3), 1 mM sodium pyruvate, and 0.1 mM non-essential amino acid.
(§1) Cytotoxicity Assay (MTT Assay)
The cytotoxicity of the compounds set forth herein to HeLa cells and HUVEC cells were determined by the MTT assay. The HUVEC cells were used to understand the cytotoxicity of said compounds to normal human cells. Besides, doxorubicin HCl was used as a comparative example so as to investigate the efficacy of the compounds according to the embodiments of the present invention.
Briefly, the MTT assay comprises the following steps: • (A) Cells were seeded in 96-well plates 3 hours before treatment, wherein the density of HeLa cell is 1×10^4 cells per well and the density of HUVEC cell is 2×10^4 cells per well; • (B) Cells were then treated with various concentrations of tested samples and incubated for a predetermined period (24, 48, and 72 hours); • (C) After the predetermined periods expired, the tested samples were removed and 100 μl MTT reagent (1 mg/ml) was added to each well; • (D) The plates were incubated at 37° C. with 5% of CO2 for 5 hours; • (E) The MTT reagent was removed and 100 μl DMSO was added to each well; • (F) The optical density (O.D.) of each well was determined by ELISA reader at a wavelength of 560 nm.
Each experiment was repeated for 3 times and the result shown in the tables herein were the mean value of the 3 repetitions. The O.D. of the vehicle control and experimental groups were recorded. The cell survival rate of each sample was calculated as follows:
Cell survival rate(%)=O.D.control/O.D.experimental*100%
Then, the cell survival rate was plotted against the compound concentration and the IC50 value of each compound was calculated by the GraFit data analysis software (Erithacus Software Ltd.).

HUVEC cells = test: Cytotoxicity assay (MTT assay) on HUVEC cells; type: cell-based, human; settings: for IC50: Homo sapiens
Description: Human umbilical vein endothelial cells (HUVEC) were purchased from Food Industry Research and Development Institute in Hsin-Chu City, Taiwan. HUVEC cells were propagated and maintained in Medium 199 supplemented with 10% FBS, Heparin, and […].
as §1

[1] = 24 h, read-out: IC50 at 24 hours, HeLa
[2] = 48 h, read-out: IC50 at 48 hours, HeLa
[3] = 72 h, read-out: IC50 at 72 hours, HeLa
[4] = HUVEC cells, 24 hours, read-out: IC50 at 24 hours, HUVEC
[5] = HUVEC cells, 48 hours, read-out: IC50 at 48 hours, HUVEC
[6] = HUVEC cells, 72 hours, read-out: IC50 at 72 hours, HUVEC

For `COc1cccc2c1C(=O)c1c(O)c3c(c(O)c1C2=O)C[C@@](O)(C(=O)CO)C[C@@H]3O[C@H]1C[C@H](N)[C@H](O)[C@H](C)O1` [Doxorubin HCl, Doxorubicin HCl, reference compound], the “HeLa Cell Survival Rate” value (HeLa cells; 0.00058 μg/ml, 24 hrs) was 96%, the “HeLa Cell Survival Rate” value (HeLa cells; 0.00058 μg/ml, 48 hrs) was 100% and the “HeLa Cell Survival Rate” value (HeLa cells; 0.00058 μg/ml, 72 hrs) was 97%. The “HeLa Cell Survival Rate” value (HeLa cells; 0.0058 μg/ml, 24 hrs) was 95%, the “HeLa Cell Survival Rate” value (HeLa cells; 0.0058 μg/ml, 48 hrs) was 92% and the “HeLa Cell Survival Rate” value (HeLa cells; 0.0058 μg/ml, 72 hrs) was 89%. The “HeLa Cell Survival Rate” value (HeLa cells; 0.058 μg/ml, 24 hrs) was 84%, the “HeLa Cell Survival Rate” value (HeLa cells; 0.058 μg/ml, 48 hrs) was 81% and the “HeLa Cell Survival Rate” value (HeLa cells; 0.058 μg/ml, 72 hrs) was 72%. For the same molecule, the “HeLa Cell Survival Rate” value (HeLa cells; 0.58 μg/ml, 24 hrs) was 46%, the “HeLa Cell Survival Rate” value (HeLa cells; 0.58 μg/ml, 48 hrs) was 23% and the “HeLa Cell Survival Rate” value (HeLa cells; 0.58 μg/ml, 72 hrs) was 11%. For the same molecule, the “HUVEC/HeLa ratio of IC50” value (HeLa cells; 24 hours) was over 1.2, the “HUVEC/HeLa ratio of IC50” value (HeLa cells; 48 hours) was 1.5 and the “HUVEC/HeLa ratio of IC50” value (HeLa cells; 72 hours) was 1.8. The IC50 (HeLa cells; [1]) was 0.48 mg/L, the IC50 (HeLa cells; [2]) was 0.2 mg/L and the IC50 (HeLa cells; [3]) was 0.12 mg/L. For the same molecule, the “HUVEC Cell Survival Rate” value (HUVEC cells; 0.145 μg/ml, 24 hrs) was 111%, the “HUVEC Cell Survival Rate” value (HUVEC cells; 0.145 μg/ml, 48 hrs) was 77% and the “HUVEC Cell Survival Rate” value (HUVEC cells; 0.145 μg/ml, 72 hrs) was 68%. The “HUVEC Cell Survival Rate” value (HUVEC cells; 0.290 μg/ml, 24 hrs) was 100%, the “HUVEC Cell Survival Rate” value (HUVEC cells; 0.290 μg/ml, 48 hrs) was 56% and the “HUVEC Cell Survival Rate” value (HUVEC cells; 0.290 μg/ml, 72 hrs) was 38%. The “HUVEC Cell Survival Rate” value (HUVEC cells; 0.580 μg/ml, 24 hrs) was 90%, the “HUVEC Cell Survival Rate” value (HUVEC cells; 0.580 μg/ml, 48 hrs) was 19% and the “HUVEC Cell Survival Rate” value (HUVEC cells; 0.580 μg/ml, 72 hrs) was 14%. For the same molecule, the IC50 (HUVEC cells; [4]) was over 0.58 mg/L, the IC50 (HUVEC cells; [5]) was 0.299 mg/L and the IC50 (HUVEC cells; [6]) was 0.22 mg/L.

With `COc1ccc2cc3[n+](cc2c1OC)CCc1cc2c(cc1-3)OCO2.[Cl-]` [Compound H, berberine hydrochloride] the “cytotoxicity to HeLa cells compared with Doxorubicin HCl” value (HeLa cells) was “higher cytotoxicity”, the “HeLa Cell Survival Rate” value (HeLa cells; 0.1 μg/ml, 24 hrs) was 89% and the “HeLa Cell Survival Rate” value (HeLa cells; 0.1 μg/ml, 48 hrs) was 98%. For the same molecule, the “HeLa Cell Survival Rate” value (HeLa cells; 0.1 μg/ml, 72 hrs) was 98%, the “HeLa Cell Survival Rate” value (HeLa cells; 1 μg/ml, 24 hrs) was 87% and the “HeLa Cell Survival Rate” value (HeLa cells; 1 μg/ml, 48 hrs) was 84%. For the same molecule, the “HeLa Cell Survival Rate” value (HeLa cells; 1 μg/ml, 72 hrs) was 91%, the “HeLa Cell Survival Rate” value (HeLa cells; 10 μg/ml, 24 hrs) was 82% and the “HeLa Cell Survival Rate” value (HeLa cells; 10 μg/ml, 48 hrs) was 71%. The “HeLa Cell Survival Rate” value (HeLa cells; 10 μg/ml, 72 hrs) was 62%, the “HeLa Cell Survival Rate” value (HeLa cells; 100 μg/ml, 24 hrs) was 28% and the “HeLa Cell Survival Rate” value (HeLa cells; 100 μg/ml, 48 hrs) was 17%. The “HeLa Cell Survival Rate” value (HeLa cells; 100 μg/ml, 72 hrs) was 10%, the “HUVEC/HeLa ratio of IC50” value (HeLa cells; 24 hours) was 0.8 and the “HUVEC/HeLa ratio of IC50” value (HeLa cells; 48 hours) was 0.7. The “HUVEC/HeLa ratio of IC50” value (HeLa cells; 72 hours) was 0.6, the “IC50 at 24 hours, HeLa” value (HeLa cells; HeLa cells, 24 hours) was 39 mg/L and the “IC50 at 72 hours, HeLa” value (HeLa cells; HeLa cells, 72 hours) was 15 mg/L. The IC50 for inhibiting HeLa cells as restated in text (HeLa cells; values taken from tables 4 and 5 (48 hours), unit inferred) was 21 mg/L, the “HUVEC Cell Survival Rate” value (HUVEC cells; 1 μg/ml, 24 hrs) was 89% and the “HUVEC Cell Survival Rate” value (HUVEC cells; 1 μg/ml, 48 hrs) was 81%. For the same molecule, the “HUVEC Cell Survival Rate” value (HUVEC cells; 1 μg/ml, 72 hrs) was 77%, the “HUVEC Cell Survival Rate” value (HUVEC cells; 10 μg/ml, 24 hrs) was 76% and the “HUVEC Cell Survival Rate” value (HUVEC cells; 10 μg/ml, 48 hrs) was 64%. For the same molecule, the “HUVEC Cell Survival Rate” value (HUVEC cells; 10 μg/ml, 72 hrs) was 51%, the “HUVEC Cell Survival Rate” value (HUVEC cells; 100 μg/ml, 24 hrs) was 23% and the “HUVEC Cell Survival Rate” value (HUVEC cells; 100 μg/ml, 48 hrs) was 16%. The “HUVEC Cell Survival Rate” value (HUVEC cells; 100 μg/ml, 72 hrs) was 15%, the “IC50 at 24 hours, HUVEC” value (HUVEC cells; HUVEC cells, 24 hours) was 30 mg/L and the “IC50 at 48 hours, HUVEC” value (HUVEC cells; HUVEC cells, 48 hours) was 15 mg/L. For the same molecule, the “IC50 at 72 hours, HUVEC” value (HUVEC cells; HUVEC cells, 72 hours) was 9 mg/L.

With `CC(C)[C@]12O[C@H]1[C@@H]1O[C@]13[C@]1(O[C@H]1C[C@H]1C4=C(CC[C@@]13C)C(=O)OC4)[C@@H]2O` [Compound B, triptolide] the “HeLa Cell Survival Rate” value (HeLa cells; 0.001 μg/ml, 24 hrs) was 98%, the “HeLa Cell Survival Rate” value (HeLa cells; 0.001 μg/ml, 48 hrs) was 94% and the “HeLa Cell Survival Rate” value (HeLa cells; 0.001 μg/ml, 72 hrs) was 81%. For the same molecule, the “HeLa Cell Survival Rate” value (HeLa cells; 0.01 μg/ml, 24 hrs) was 89%, the “HeLa Cell Survival Rate” value (HeLa cells; 0.01 μg/ml, 48 hrs) was 37% and the “HeLa Cell Survival Rate” value (HeLa cells; 0.01 μg/ml, 72 hrs) was 15%. For the same molecule, the “HeLa Cell Survival Rate” value (HeLa cells; 0.1 μg/ml, 24 hrs) was 33%, the “HeLa Cell Survival Rate” value (HeLa cells; 0.1 μg/ml, 48 hrs) was 14% and the “HeLa Cell Survival Rate” value (HeLa cells; 0.1 μg/ml, 72 hrs) was 9%. The “HeLa Cell Survival Rate” value (HeLa cells; 1 μg/ml, 24 hrs) was 26%, the “HeLa Cell Survival Rate” value (HeLa cells; 1 μg/ml, 48 hrs) was 12% and the “HeLa Cell Survival Rate” value (HeLa cells; 1 μg/ml, 72 hrs) was 9%. For the same molecule, the “HeLa Cell Survival Rate” value (HeLa cells; 100 μg/ml, 24 hrs) was 20%, the “HeLa Cell Survival Rate” value (HeLa cells; 100 μg/ml, 48 hrs) was 13% and the “HeLa Cell Survival Rate” value (HeLa cells; 100 μg/ml, 72 hrs) was 9%. For the same molecule, the “HUVEC/HeLa ratio of IC50” value (HeLa cells; 24 hours) was over 13.9, the “HUVEC/HeLa ratio of IC50” value (HeLa cells; 48 hours) was 20.9 and the “HUVEC/HeLa ratio of IC50” value (HeLa cells; 72 hours) was 29.3. For the same molecule, the IC50 (HeLa cells; [1]) was 0.0721 mg/L (≈ 0.2 µM), the IC50 (HeLa cells; [2]) was 0.00724 mg/L (≈ 0.0201 µM) and the IC50 (HeLa cells; [3]) was 0.00287 mg/L (≈ 0.00796 µM). For the same molecule, the “cytotoxicity to HeLa cells compared with Doxorubicin HCl” value (HeLa cells; under the corresponding conditions) was “higher cytotoxicity”, the “HUVEC Cell Survival Rate” value (HUVEC cells; 0.001 μg/ml, 24 hrs) was 93% and the “HUVEC Cell Survival Rate” value (HUVEC cells; 0.001 μg/ml, 48 hrs) was 102%. The “HUVEC Cell Survival Rate” value (HUVEC cells; 0.001 μg/ml, 72 hrs) was 108%, the “HUVEC Cell Survival Rate” value (HUVEC cells; 0.01 μg/ml, 24 hrs) was 94% and the “HUVEC Cell Survival Rate” value (HUVEC cells; 0.01 μg/ml, 48 hrs) was 111%. The “HUVEC Cell Survival Rate” value (HUVEC cells; 0.01 μg/ml, 72 hrs) was 114%, the “HUVEC Cell Survival Rate” value (HUVEC cells; 0.1 μg/ml, 24 hrs) was 59% and the “HUVEC Cell Survival Rate” value (HUVEC cells; 0.1 μg/ml, 48 hrs) was 36%. For the same molecule, the “HUVEC Cell Survival Rate” value (HUVEC cells; 0.1 μg/ml, 72 hrs) was 23%, the “HUVEC Cell Survival Rate” value (HUVEC cells; 1 μg/ml, 24 hrs) was 71% and the “HUVEC Cell Survival Rate” value (HUVEC cells; 1 μg/ml, 48 hrs) was 35%. For the same molecule, the “HUVEC Cell Survival Rate” value (HUVEC cells; 1 μg/ml, 72 hrs) was 23%, the IC50 (HUVEC cells; [4]) was over 1 mg/L and the IC50 (HUVEC cells; [5]) was 0.151 mg/L (≈ 0.419 µM). For the same molecule, the IC50 (HUVEC cells; [6]) was 0.084 mg/L (≈ 0.233 µM).
